In publication PMC12735921, “Evaluation of Antiproliferative Activity and Molecular Modeling Studies of Some Novel Benzimidazolone-Bridged Hybrid Compounds” (Pharmaceuticals, 2025):

Key:
[1] = test system: A549, MCF-7, and HeLa cells; assay: MTT cell viability assay, ranges stated across the cancer cell lines; assay type: cell-based; settings: Homo sapiens, range over the three cancer cell lines, 48 h
Experimental: (§1) Cell viability assay was performed on the human lung cancer (A549) (ATCC CCL-185), human breast cancer (MCF-7) (ATCC-HTB-22), cervical cancer (HeLa) (ATCC-CCL-2), and human embryonic kidney 293 (HEK293) (ATCC-CRL-1573) cell lines, which were purchased from Deutsche Sammlung von Mikroorganismen und Zellkulturen (DSMZ, Braunschweig, Germany). The cells were maintained in Dulbecco’s modified Eagle’s medium (DMEM), supplemented with 10% fetal bovine serum (FBS), 2 mM L-glutamine, 100 U/mL penicillin, and 100 mg/L streptomycin (Biochrom AG, Berlin, Germany) at 37 °C in a humidified atmosphere of 5% CO2.
The cytotoxic effect was determined by the MTT (3-(4,5-dimethyl-2-thiazolyl)-2,5-diphenyl-2H-tetrazolium bromide) cell viability assay. Cells were seeded at an initial concentration of 1 × 10^5 cells/mL in 96-well microplates. […] After the incubation period, the formed formazan crystals were dissolved in dimethyl sulfoxide (DMSO), and the optical density (OD) of the compounds was measured at 570 nm using a spectrophotometer (BMG Labtech, Ortenberg, Germany). Cytotoxicity was expressed as an increase in the mean percentage of cytotoxicity relative to the unexposed control ± standard deviation (SD). […] IC50 was calculated by fitting the data to a sigmoidal curve using a four-parameter logistic model and was presented as an average of three independent measurements. […]

[2] = test system: MCF-7 cells; assay: MTT cell viability assay, MCF-7; assay type: cell-based, human
Experimental: as §1
(§2) The cytotoxic effect was determined by the MTT (3-(4,5-dimethyl-2-thiazolyl)-2,5-diphenyl-2H-tetrazolium bromide) cell viability assay. Cells were seeded at an initial concentration of 1 × 10^5 cells/mL in 96-well microplates. Cells were then treated with different concentrations (0.5, 5, 10, 25, 50, 100 and 200 µM) of the novel synthesized compounds for 48 h. After the incubation period, the formed formazan crystals were dissolved in dimethyl sulfoxide (DMSO), and the optical density (OD) of the compounds was measured at 570 nm using a spectrophotometer (BMG Labtech, Ortenberg, Germany). Cytotoxicity was expressed as an increase in the mean percentage of cytotoxicity relative to the unexposed control ± standard deviation (SD). […] Control values were set at 0% cytotoxicity. IC50 was calculated by fitting the data to a sigmoidal curve using a four-parameter logistic model and was presented as an average of three independent measurements. […] Doxorubicin was used as a positive control. Each sample was tested in triplicate.
(§3) To evaluate the selectivity of the tested compound(s) toward cancer cells over normal cells, the Selectivity Index (SI) was calculated using the following formula:SI = IC50 (normal cells)/IC50 (cancer cells)
(§4) An SI value greater than 2 was considered to indicate selective cytotoxicity, while values below 2 were interpreted as non-selective. Higher SI values reflect greater therapeutic potential due to reduced toxicity toward normal cells.

[3] = test system: HEK 293 cells; assay: MTT cell viability assay, non-cancerous HEK 293; assay type: cell-based, human; settings: Homo sapiens, HEK293, 48 h, mean ± SD, n = 3
Experimental: as §1
The cytotoxic effect was determined by the MTT (3-(4,5-dimethyl-2-thiazolyl)-2,5-diphenyl-2H-tetrazolium bromide) cell viability assay. Cells were seeded at an initial concentration of 1 × 10^5 cells/mL in 96-well microplates. Cells were then treated with different concentrations (0.5, 5, 10, 25, 50, 100 and 200 µM) of the novel synthesized compounds for 48 h. After the incubation period, the formed formazan crystals were dissolved in dimethyl sulfoxide (DMSO), and the optical density (OD) of the compounds was measured at 570 nm using a spectrophotometer (BMG Labtech, Ortenberg, Germany). Cytotoxicity was expressed as an increase in the mean percentage of cytotoxicity relative to the unexposed control ± standard deviation (SD). […] Control values were set at 0% cytotoxicity. IC50 was calculated by fitting the data to a sigmoidal curve using a four-parameter logistic model and was presented as an average of three independent measurements. […] Each sample was tested in triplicate.

[4] = test system: HeLa cells; assay: MTT cell viability assay, HeLa; assay type: cell-based, human
Experimental: as §1, §2, §3, §4

[5] = test system: A549 cells; assay: MTT cell viability assay, A549; assay type: cell-based, human
Experimental: as §1, §2, §3, §4

IC50 [1]: 8.5 to 11.2 µM
IC50 ([2]; Homo sapiens, MCF7, MTT, 48 h, mean ± SD, n = 3): 11.2 ± 0.46 µM
IC50 ([4]; Homo sapiens, HeLa, MTT, 48 h, mean ± SD, n = 3): 8.5 ± 0.49 µM
IC50 ([5]; Homo sapiens, A549, MTT, 48 h, mean ± SD, n = 3): 9.6 ± 0.55 µM
Compound: O=c1n(CN2CCN(c3ccc(Cl)cc3)CC2)c2cc(Cl)c(Cl)cc2n1CN1CCN(c2ccc(Cl)cc2)CC1 [Compound 9, 5,6-Dichloro-1,3-bis((4-(4-chlorophenyl)piperazin-1-yl)methyl)-1H-benzo[d]imidazol-2(3H)-one]
MCF-7 Selectivity Index (SI) ([2]; SI = IC50 (HEK 293)/IC50 (MCF-7)): 1.35
IC50 [3]: 15.2 ± 0.87 µM
HeLa Selectivity Index (SI) ([4]; SI = IC50 (HEK 293)/IC50 (HeLa)): 1.78
A549 Selectivity Index (SI) ([5]; SI = IC50 (HEK 293)/IC50 (A549)): 1.58
